Here are results for 27 compounds from US20230174538A1, “Tricyclic heterocycles” (Merck Patent GmbH, priority 2020, published 2023).

Holding throughout (type): cell-based
For experiment [1], the system named is NCI-H226 cells. Description: Viability assay in NCI-H226 (Yap-dependent) cells, CyQUANT. Particulars: Homo sapiens. The method, then:
(§1) Viability Assay in NCI-H226 (Yap-Dependent) and SW620 Yap KO (Yap Independent) Cells
(§2) The ability of YAP-TEAD inhibitors to inhibit tumor cell growth was evaluated using two different cell lines: NCI-H226, which is a YAP dependent cell line, and SW620 cells, where YAP and TAZ were knocked out using CRISPR to generate a YAP independent cell line.
(§3) For the assay, cells were treated in duplicates with the test compounds in a 10-point dose, 1:3 dilution steps, with the top concentration starting at 30 μM (final concentration in assay). After a 96 hour incubation at 37° C., 95% rH, and 5% CO2, a cell-permeant DNA-binding dye that stains only healthy cells (CyQUANT®, Promega) was added to the cells, allowing the quantification of cell viability.
(§4) Cell Media: The NCI-H226 cells were cultured in the following media: RPMI 1640, +10% FBS, +1× GlutaMAX, +10 mM HEPES, +0.5% Pen/Strep. The SW620-KO cells were cultured in the following media: DMEM/F-12, +10% FBS, +1× GlutaMAX, +10 mM HEPES, +0.5% Pen/Strep.
(§5) Reagents: The reagents used are listed below:
(§6) Cell culture: The cells were examined using an inverted microscope to check for health, cell density, etc. To dissociate adherent cells, the monolayer of cells was washed once with pre-warmed PBS. After removing the PBS, 3 ml pre-warmed Accutase was added to a F75 flask, dispersed evenly and the flask was allowed to sit in incubator for ˜4-5 minutes.
(§7) When a single cell suspension was obtained, 7 ml of prewarmed growth media was added and resuspended with the cells. The cell suspension was transferred to a sterile 15 ml conical centrifuge tube, and spun for 5 min at 300×g, RT. The supernatant was discarded and the pellet was resuspended in 10 ml of pre-warmed growth media.
(§8) The total cell count was determined, and 20 μl of the desired cell number was added to each well of a 384 well plate using a Multidrop Combi. The plates were then incubated for 24 hours at 37° C., 95% rH, and 5% CO2.
(§9) Compound treatment: 24 hours after seeding, the cells were treated with compounds.
(§10) A 1:333 dilution of compounds, diluted in DMSO, was made to get a final concentration of 0.3% DMSO per well. To transfer the compounds to the assay plate, 120 nl was shot from Labcyte low dead volume plates to the cell plates containing 20 μl media/well with the ECHO 555 liquid handling system.
(§11) After treatment, the cells were fed with 20 μl fresh pre-warmed assay media using a Multidrop combi.
(§12) The assay plates were then incubated for 96 h at 37° C., 95% rH, and 5% CO2.
(§13) 96 h after treatment 30 μl of CyQuant® reagent was added to the assay plates using a Multidrop combi in the dark. The plates were then incubated for 1 hour at 37° C., 95% rH and 5% CO2. Thereafter, the assay plates were removed from the incubator and allowed to equilibrate to RT for 30 min in the dark without lid. Finally, they were measured using an EnVision microplate reader with a FITC bottom read program.

For experiment [2], the system named is SW620 Yap KO cells. The experiment can be described thus: Viability assay in SW620 Yap KO (Yap independent) cells, CyQUANT. The note with it: Homo sapiens, SW-620. How it is done:
as §1, §2, §3, §4, §5, §6, §7, §8, §9, §10, §11, §12, §13

For experiment [3], the system named is YAP-TEAD interaction. Description: SK-HEP-1 reporter assay (8xTEAD responsive elements driving NanoLuc luciferase). The note with it: Homo sapiens, SK-HEP1, SK-HEP-1 reporter assay. The essentials: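 SK-HEP-1 cells stably carrying an 8×TEAD-element NanoLuc reporter were treated in duplicate with 10-point dilutions from a top final 30 μM (0.3% DMSO). After 24 h at 37 °C, luciferase activity was read by luminescence with NanoGlo lysis/substrate reagent, and IC50 values were derived.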
(A reporter such as luciferase makes a cellular process visible.)

For the compound `CSc1ccc2c(c1)c1cn(C)nc1n2-c1ccc(C)cc1` [Example 31, 2-methyl-8-(4-methylphenyl)-5-(methylsulfanyl)-2H,8H-pyrazolo[3,4-b]indole], the IC50 was > 10 µM in experiment [1], > 30 µM in experiment [2] and 0.01 to 0.1 µM in experiment [3]. Take `CCn1cc(C(O)CNC(=O)c2ccc3c(c2)c2cn(C)nc2n3-c2ccc(C(F)(F)F)cc2)cn1` (stereo not shown) [Example B36, N-[2-(1-ethyl-1H-pyrazol-4-yl)-2-hydroxyethyl]-2-methyl-8-[4-(trifluoromethyl)phenyl]-2H,8H-pyrazolo[3,4-b]indole-5-carboxamide]: the figures for the IC50 in experiment [1], in experiment [2] and in experiment [3] were 0.001 to 0.1 µM, > 30 µM and 0.01 to 0.1 µM, respectively. `Cc1ccc(-n2c3ccc(C(=O)O)cc3c3cn(C)nc32)cc1` [Example 9, 2-Methyl-8-(4-methylphenyl)-2H,8H-pyrazolo[3,4-b]indole-5-carboxylic acid]: the IC50 in experiment [1] lay within 0.001 to 0.1 µM; in experiment [2], 10 to 30 µM. With `Cn1cc2c3cc(C(=O)O)ccc3n(Cc3ccc(C(F)(F)F)cc3)c2n1` [Example 5, 2-Methyl-8-{[4-(trifluoromethyl)phenyl]methyl}-2H,8H-pyrazolo[3,4-b]indole-5-carboxylic acid], the figures for the IC50 in experiment [1], in experiment [2] and in experiment [3] were 0.001 to 0.1 µM, > 30 µM and 0.01 to 0.1 µM, respectively. Turning to `Cn1cc2c(n1)c1cc([S+](C)[O-])ccc1n2-c1ccc(C(F)(F)F)cc1` (stereo not shown) [Example 32, 7-methanesulfinyl-2-methyl-4-[4-(trifluoromethyl)phenyl]-2H,4H-pyrazolo[4,3-b]indole], the values for the IC50 in experiment [1] and in experiment [3] were > 10 µM and 0.1 to 10 µM, respectively. Consider `CNC(=O)c1ccc2c(c1)c1nn(C)cc1n2-c1ccc(C(F)(F)F)cc1` [Example 17, N,2-dimethyl-4-[4-(trifluoromethyl)phenyl]pyrazolo [4,3-b]indole-7-carboxamide], for which the IC50 was 0.1 to 1 µM in experiment [1], > 30 µM in experiment [2] and 0.01 to 0.1 µM in experiment [3]. As for `CCCn1ncc(CNC(=O)c2ccc3c(c2)c2cn(C)nc2n3-c2ccc(C(F)(F)F)cc2)c1C` [B123^], the IC50 in experiment [1] lay in the range of 0.1 to 1 µM; in experiment [3], 0.01 to 0.1 µM. With `Cn1cc2c(n1)c1cc(S(N)(=O)=O)ccc1n2-c1ccc(C(F)(F)F)cc1` [Example 34, 2-methyl-4-[4-(trifluoromethyl)phenyl]-2H,4H-pyrazolo[4,3-b]indole-7-sulfonamide], the IC50 in experiment [1] is > 10 µM; in experiment [2], > 30 µM; in experiment [3], 0.01 to 0.1 µM.

As to `Cn1cc2c3cc(C(=O)O)ccc3n(-c3ccc(C4CCCC4)cc3)c2n1` [Example 22, 8-(4-cyclopentylphenyl)-2-methyl-2H,8H-pyrazolo [3,4-b]indole-5-carboxylic acid], the half-inhibitory concentration (IC50) in experiment [1] is 0.1 to 1 µM; in experiment [2], > 30 µM; in experiment [3] it was 0.01 to 0.1 µM. In the same order, the values of `Cn1cc2c3cc(C(=O)O)ccc3n(Cc3ccccc3)c2n1` [Example 12, 8-(Benzyl)-2-methyl-2H,8H-pyrazolo[3,4-b]indole-5-carboxylic acid] are 0.1 to 1 µM, > 30 µM and 0.01 to 0.1 µM. `Cn1cc2c(n1)c1cc(F)ccc1n2-c1ccc(C(F)(F)F)cc1` [Example 26, 7-fluoro-2-methyl-4-[4-(trifluoromethyl)phenyl]pyrazolo[4,3-b]indole]: the figures for the IC50 in experiment [1], in experiment [2] and in experiment [3] were > 10 µM, 10 to 30 µM and 0.01 to 0.1 µM, respectively.

The compound `Cn1cc2c3cc(C(=O)N4CC5(CCCC5)CC4CO)ccc3n(-c3ccc(C(F)(F)F)cc3)c2n1` (stereo not shown) [Example B10, (2-{2-methyl-8-[4-(trifluoromethyl)phenyl]-2H,8H-pyrazolo[3,4-b]indole-5-carbonyl}-2-azaspiro[4.4]nonan-3-yl)methanol] displayed a half-maximal inhibitory concentration (IC50) in experiment [3] of 0.1 to 10 µM. Turning to `Cn1cc2c3cc(C(=O)N4CCCC4Cn4cncn4)ccc3n(-c3ccc(C(F)(F)F)cc3)c2n1` (stereo not shown) [Example B54, 1-[(1-{2-methyl-8-[4-(trifluoromethyl)phenyl]-2H,8H-pyrazolo[3,4-b]indole-5-carbonyl}pyrrolidin-2-yl)methyl]-1H-1,2,4-triazole], the IC50 in experiment [3] is > 10 µM. `Cn1cc2c3cc(C(=O)N4CC(F)(F)CC4(C)CO)ccc3n(-c3ccc(C(F)(F)F)cc3)c2n1` (stereo not shown) [Example B35, (4,4-difluoro-2-methyl-1-{2-methyl-8-[4-(trifluoromethyl)phenyl]-2H,8H-pyrazolo[3,4-b]indole-5-carbonyl}pyrrolidin-2-yl)methanol]: in experiment [3], the IC50 was > 10 µM. Same read-out and setting: the figure for `Cn1cc2c3cc(C(=O)NCCc4cccc(F)n4)ccc3n(-c3ccc(C(F)(F)F)cc3)c2n1` [Example B84, N-[2-(6-fluoropyridin-2-yl)ethyl]-2-methyl-8-[4-(trifluoromethyl)phenyl]-2H,8H-pyrazolo[3,4-b]indole-5-carboxamide] is > 10 µM; for `CN(C)c1noc(CCNC(=O)c2ccc3c(c2)c2cn(C)nc2n3-c2ccc(C(F)(F)F)cc2)n1` [B120^] it is 0.1 to 10 µM; for `Cc1[nH]cnc1CNC(=O)c1ccc2c(c1)c1cn(C)nc1n2-c1ccc(C(F)(F)F)cc1` [Example B46, 2-methyl-N-[(5-methyl-1H-imidazol-4-yl)methyl]-8-[4-(trifluoromethyl)phenyl]-2H,8H-pyrazolo[3,4-b]indole-5-carboxamide] it is 0.1 to 10 µM. `Cn1cc2c3cc(C(=O)NC4(c5nnc[nH]5)CC4)ccc3n(-c3ccc(C(F)(F)F)cc3)c2n1` [B134^]: the IC50 in experiment [3] fell in the range of 0.1 to 10 µM. `CC(NC(=O)c1ccc2c(c1)c1cn(C)nc1n2-c1ccc(C(F)(F)F)cc1)C(C)N1CCOCC1` (stereo not shown) [Example B61, 2-methyl-N-[3-(morpholin-4-yl)butan-2-yl]-8-[4-(trifluoromethyl)phenyl]-2H,8H-pyrazolo[3,4-b]indole-5-carboxamide] showed an IC50 in experiment [3] of 0.1 to 10 µM. `CC(NC(=O)c1ccc2c(c1)c1cn(C)nc1n2-c1ccc(C(F)(F)F)cc1)c1c[nH]cn1` (stereo not shown) [Example B5, N-[1-(1H-imidazol-4-yl)ethyl]-2-methyl-8-[4-(trifluoromethyl)phenyl]-2H,8H-pyrazolo[3,4-b]indole-5-carboxamide]: in experiment [3], the IC50 was 0.1 to 10 µM. Regarding `Cc1oc(C2CC2)nc1CNC(=O)c1ccc2c(c1)c1cn(C)nc1n2-c1ccc(C(F)(F)F)cc1` [Example B85, N-[(2-cyclopropyl-5-methyl-1,3-oxazol-4-yl)methyl]-2-methyl-8-[4-(trifluoromethyl)phenyl]-2H,8H-pyrazolo[3,4-b]indole-5-carboxamide], in experiment [3], the half-inhibitory concentration (IC50) is 0.001 to 0.01 µM.

For `Cn1cc2c3cc(C(=O)N4CCC(O)(c5c[nH]nn5)C4)ccc3n(-c3ccc(C(F)(F)F)cc3)c2n1` (stereo not shown) [Example B74, 1-(2-methyl-8-[4-(trifluoromethyl)phenyl]-2H,8H-pyrazolo[3,4-b]indole-5-carbonyl}-3-(1H-1,2,3-triazol-4-yl)pyrrolidin-3-ol], in experiment [3], the IC50 was 0.1 to 10 µM.

In turn, `CO[C@@H]1CCOC[C@H]1NC(=O)c1ccc2c(c1)c1cn(C)nc1n2-c1ccc(C(F)(F)F)cc1` [B131^] registered an IC50 in experiment [3] of 0.1 to 10 µM. `Cc1c[nH]c(C2(NC(=O)c3ccc4c(c3)c3cn(C)nc3n4-c3ccc(C(F)(F)F)cc3)CCC2)n1` [Example B60, 2-methyl-N-[1-(4-methyl-1H-imidazol-2-yl)cyclobutyl]-8-[4-(trifluoromethyl)phenyl]-2H,8H-pyrazolo[3,4-b]indole-5-carboxamide] had an IC50 in experiment [3] of 0.1 to 10 µM. Same read-out and setting: as for `Cn1cc2c3cc(C(=O)NC(CF)c4cnnn4C)ccc3n(-c3ccc(C(F)(F)F)cc3)c2n1` (stereo not shown) [Example B91, N-[2-fluoro-1-(1-methyl-1H-1,2,3-triazol-5-yl)ethyl]-2-methyl-8-[4-(trifluoromethyl)phenyl]-2H,8H-pyrazolo[3,4-b]indole-5-carboxamide], the figure is 0.01 to 0.1 µM.

Take `Cn1cc2c3cc(C(=O)N4CC(O)(c5ccsc5)C4)ccc3n(-c3ccc(C(F)(F)F)cc3)c2n1` [B135^]: the half-maximal inhibitory concentration (IC50) in experiment [3] fell in the range of 0.1 to 10 µM. Consider `Cn1cc2c3cc(C(=O)NC4(CCF)CCOCC4)ccc3n(-c3ccc(C(F)(F)F)cc3)c2n1` [B112^], for which the 50% inhibitory concentration (IC50) in experiment [3] lay within 0.1 to 10 µM.

As usually defined, the IC50 is the concentration needed to halve the response being measured.
